Experimental data from patent US9200067B2, “Molecular marker CUEDC2 protein for prognostic determination of breast cancer endocrinology therapy” (Biomedical Analysis Center of Academy of Military Medical …, priority 2011, dated 2015).
Entries after “also recorded” stand apart in the source; their conditions may differ.

Assays:
[1] = tested on: MCF-7 cells stably transfected with CUEDC2; assay: Cell growth by cell counting under different doses of tamoxifen; format: cell-based
Method: (§1) MCF-7 cells stably transfected with CUEDC2 were treated with different doses of tamoxifen, and then the cell growth was observed by a cell counting method. […] In order to eliminate nonspecific effects of over expression of CUEDC2 on cells growth, the inventors knocked down the CUEDC2 expression in the cells and did the same cell growth experiment. […] In order to verify the above conclusion, the inventors further conducted animal experiments. 5×10^6 MCF-7/vector or MCF-7/CUEDC2 cells were injected into the mammary fat pad of ovariectomized nude mice, and estrogen sustained-release tablets were embedded subcutaneously. When tumors grew to 100-150 mm^3, nude mice were divided into two groups randomly, and embedded with tamoxifen or control placebo pills subcutaneously.

MCF-7 cells = assay: Crystal violet colony-formation assay; format: cell-based
[2] = tested on: MCF-7/vector or MCF-7/CUEDC2 cells; assay: Tumor formation in ovariectomized nude mice (mammary fat pad xenograft); format: in vivo; conditions: tamoxifen sustained-release tablets subcutaneously, vs placebo
Method: 4-week-old female nude mice were purchased from Animal Laboratory Center of the Academy of Military Medical Sciences; the Cell Titer Glo Luminescent Cell Viability Assay was purchased from Promega Company; the Estrogen and tamoxifen sustained-release tablets were purchased from Innovative Research of America.
as §1

Q: How did the “sensitivity of cell growth to tamoxifen” value ([1]; MCF-7 cells over expressing CUEDC2, different doses of tamoxifen) turn out when `CC/C(=C(\c1ccccc1)c1ccc(OCCN(C)C)cc1)c1ccccc1` [tamoxifen] was run?
A: insensitive

Q: And the “sensitivity of cells to tamoxifen after CUEDC2 knockdown” value ([1]; MCF-7 cells over expressing CUEDC2 knocked down by CUEDC2 siRNA)?
A: restored the sensitivity

Q: And the “sensitivity to tamoxifen-induced cell death” value (MCF-7 cells; cells over expressing CUEDC2)?
A: insensitive

Q: What about the “sensitivity to tamoxifen-induced cell death” value (MCF-7 cells; control MCF-7 empty vector cells) of the same molecule?
A: sensitive

Q: What about the tumor growth ([2]; MCF-7/CUEDC2 cells in nude mice) of the same molecule?
A: could not effectively inhibit; also recorded: cannot inhibit tumor growth effectively

Q: And the tumor growth ([2]; MCF-7/vector cells in nude mice)?
A: significantly inhibit
